Consider one compound from US20190359653A1, “SELECTIVE PEPTIDE INHIBITORS OF FRIZZLED” (Genentech, Inc., priority 2016, published 2019).

The subject of one experiment is FZD CRD-Fc. The experiment in a line: binding of 5FAM peptides to the FZD CRD-Fc panel. The procedure: Control experiments using 5FAM-Fz7-21S were performed in parallel. 5FAM-Fz7-21 or 5FAM-Fz721S was incubated with each of the aforementioned FZD CRD-Fcs overnight at 4° C. in PBS and resolved via SEC.
In FIGS. 3A-3I, 5FAM-Fz7-21 or 5FAM-Fz7-21S (50 nM in PBS) was incubated with increasing concentration of FZD CRD-Fc (2-fold serial dilutions), and fluorescence intensity was measured using either a Monolith NT.115 or NT.115Pico instrument (NanoTemper Technologies). EC50 values represent the 95% confidence interval of at least three independent experiments, excepting hFZD1 CRD-Fc+5FAM-Fz7-21S, which was done twice. EC50 ovalues were calculated with Prism Graphpad using the Log(agonist) vs. response [variable slope (four parameters) function: Y=Bottom+(Top-Bottom)/(1+10^((Log EC−X)*HillSlope))]. Plotted values represent the mean±s.e.m.

In a further experiment the test system is FZD CRD-Fc proteins. The experiment in a line: fluorescence size-exclusion chromatography (FSEC) with FZD CRD-Fc proteins. The class given is binding. As to conditions: 1 μM peptide, 250 nM FZD CRD-Fc, overnight at 4° C.; FZD1, FZD2 and FZD7 CRD-Fc. The procedure: (§1) Fluorescence size-exclusion chromatography (FSEC) experiments were run using an AKTA FPLC system (General Electric Company) with UNICORN software package (version 5.31). Samples were resolved using a SEC3000 or SEC2000 (Phenomenex; Torrence, Calif.) column at 0.5 mL/min in phosphate buffer. Fluorescence was monitored using a FP-2020 Plus fluorescence detector (Jasco Analytical Instruments, Easton, Md.) in normal mode (excitation/emission, […]; gain=100; STD=32). All samples were prepared with a final DMSO concentration of 1% and incubated overnight at 4° C. prior to sample separation. FZD CRD-Fc samples were kept at ˜250 nM in the presence of excess 5FAM labeled peptide (1 μM). […]
Selective targeting of the FZD7 receptor subclass was also observed chromatographically. […] See FIGS. 4A and 4B, which provide representative fluorescence traces of 1 μM 5FAM-Fz7-21 and 1 μM 5FAM-Fz7-21S, respectively, incubated with various FZD CRD-Fc proteins (250 nM) overnight at 4° C. prior to analysis by FSEC. […] In FIG. 24A, molecular weight (MW) standards analyzed by UV absorption were plotted as a function of elution volume (Ve) over void volume (Vo). […] Measured values represent the mean±standard deviation (SD) of three independent experiments. […] Binding to recombinant FZD3 and 6 CRDs could not be assessed due to challenges with the expression of these proteins. […]
(In gel filtration, larger molecules generally elute earlier.)

For experiment [1], the system named is FZD7, FZD4, 5 or 6 receptors stably expressed in HEK293 cells. The experiment in a line: flow cytometry of cells stably expressing gD-FZD. The class given is binding. As to conditions: peptide 12.5 μM. The procedure: Cell lines stably expressing gD-FZD were grown to ˜80% confluence in DMEM:F12 (50:50) media supplemented with 10% FBS (cat. no. 1500-100; Seradigm), 1× GlutMAX (cat. no. 35050-061; Gibco) and G418 (200 μg/mL; cat. no. A1720; Sigma), released with 0.05% trypsin/EDTA in PBS (cat. no. 15400-054; Gibco), collected on ice and buffer exchanged into ice cold FACS buffer (0.5% BSA and 0.05% NaAz in PBS). 100,000 cells/well were plated into an ice cold U-bottomed plate (cat. no. 3799; Costar) and cells pelleted by centrifugation at 1200 rpm for 3 min. […] Data was collected with FACSDiva (BD; version 8.0.1) and analyzed using FLowJo (FlowJo, LLC; v10.1).
Selective targeting of the FZD7 receptor subclass was also observed chromatographically. […] See FIGS. 4A and 4B, which provide representative fluorescence traces of 1 μM 5FAM-Fz7-21 and 1 μM 5FAM-Fz7-21S, respectively, incubated with various FZD CRD-Fc proteins (250 nM) overnight at 4° C. prior to analysis by FSEC. […] In FIG. 24A, molecular weight (MW) standards analyzed by UV absorption were plotted as a function of elution volume (Ve) over void volume (Vo). […] Measured values represent the mean±standard deviation (SD) of three independent experiments. […] Binding to recombinant FZD3 and 6 CRDs could not be assessed due to challenges with the expression of these proteins.
On the technique in general: In flow cytometry, cells or beads pass a laser one at a time.

Experiment [2] has as its system human sFRP1, sFRP2, sFRP3, sFRP4, or sFRP5. The experiment in a line: FSEC with secreted Frizzled-related proteins. The class given is binding. The note with it: sFRP ~250 nM, peptide 10 μM. The procedure: as §1, with “μM). Human secreted Frizzled-related proteins were maintained at ˜250 nM in the presence of excess 5FAM-labeled peptide (10 μM).” for “μM).”
For FIGS. 4C and 5C, values represent the mean±s.e.m. of three independent experiments. […] Samples were resolved using a SEC3000 column (Phenomenex; Torrence, Calif.) at 0.5 mL/min in phosphate buffer saline (PBS) and fluorescence was monitored with an FP-2020 Plus fluorescence detector (Jasco Analytical Instruments, Easton, Md.) using normal mode (excitation/emission […]); gain=100; STD=32. […] Molecular weights were determined by standards (BioRad catalogue number, 151-1901) run prior to sample runs.

Structures are written as SMILES. Peptide text beside a SMILES is read from it. * marks the point of attachment. 5FAM = O=C1OC2(c3ccc(O)cc3Oc3cc(O)ccc32)c2ccc(C(=O)*)cc21

As to `CSCC[C@H](NC(=O)[C@@H](NC(=O)[C@H](Cc1c[nH]cn1)NC(=O)[C@H](CS)NC(=O)[C@H](Cc1c[nH]c2ccccc12)NC(=O)[C@H](Cc1ccccc1)NC(=O)[C@H](CCC(=O)O)NC(=O)[C@H](CC(C)C)NC(=O)[C@H](CC(=O)O)NC(=O)[C@H](CC(=O)O)NC(=O)[C@H](CO)NC(=O)[C@@H]1CCCN1C(=O)[C@H](CC(C)C)NC(=O)c1ccc2c(c1)C(=O)OC21c2ccc(O)cc2Oc2cc(O)ccc21)C(C)C)C(=O)N[C@@H](Cc1ccc(O)cc1)C(N)=O` [5FAM-Fz7-21] (5FAM-LPSDDLEFWCHVMY-NH2; N-terminus and C-terminus assumed), the “binding” value in the experiment on FZD CRD-Fc (FZD5, FZD8, FZD9 and FZD10 CRDs) was “little to no binding”. For the same compound, the EC50 at FZD CRD-Fc (hFZD1 CRD-Fc, hFZD2 CRD-Fc, hFZD7 CRD-Fc, and mFZD7 CRD-Fc, read-out: affinities) is 39 to 116 nM. The “complex with FZD CRD-Fc resolved by FSEC” value with FZD CRD-Fc proteins is reported as “could be resolved”. In addition, in experiment [1], the “binding by flow cytometry analysis” value is recorded as “predominant binding to FZD7 with minimal binding to FZD4, 5 or 6 receptors”. Besides, the “binding to sFRPs by FSEC” value in experiment [2] is “not found to bind”.
